Test results: US20180021347A1, “COMPOSITION FOR THE TREATMENT OF HEPATIC VENO-OCCLUSIVE DISEASE” (priority 2015, published 2018)

Assays:
[1] = cited from earlier work
[2] = human, in vivo; cited from earlier work
[3] = cited from earlier work; remark: listed apart in the source
TSECs [4] = assay: Busulfan-induced death of TSECs (trypan blue cell viability); type: cell-based, human
Description: (Cheuk D K et al, Bone Marrow transplant 40: 935-944, 2007). We tested, if the toxicity of busulfan was amenable to in vitro studies on TSECs. Accordingly, we defined the concentration-response curve for busulfan-induced death of TSECs. In analogy to Raimer J et al (EurJClinPharmacol 68: 932-935, 2012), who had used ECV304 cells, we plated TSECs on collagen-coated plastic dishes (5×10^3 cells/24-well plate). After 24 hours, busulfan was added at increasing concentrations (10 μM-1 mM). The concentration range was based on reports in the literature and on the serum levels observed in patients undergoing myeloablative chemotherapy. Cell viability was assessed after 24, 48 and 72 h.
TSECs were plated on collagen-coated plastic dishes (5*10^3 cells/24-well plate). After 24 hours busulfan, a cell cycle non-specific alkylating antineoplastic agent, in the class of alkyl sulfonates with a chemical designation is 1,4-butanediol dimethanesulfonate, used as chemotherapeutic agent and known to induce VOD, was added at increasing concentrations (10 μM-1 mM). The concentration range is based on reports in the literature and on the serum levels observed in patients undergoing myeloablative chemotherapy. Cell viability was assessed after 24, 48 and 72 hours. For this purpose cells were washed twice with PBS, trypsinized, mixed with trypan blue (1:1 volumes) and counted using a hemocytometer. […] The data (means±standard deviation) shown represent cell death after for 48 hours.

TSECs [5] = assay: Yield of RNA/mRNA from TSECs after busulfan and treprostinil; type: cell-based, human
Description: In EC340 cells, concentrations as high as 300 μM were tolerated for 96h and allowed for investigating target gene expression and regulation upon treatment with busulfan. This concentration was not compatible with the extraction of mRNA in TSECs: the amount, quality and stability of mRNA were affected in a dose- and time-dependent manner (FIG. 5 and data not shown). […] Based on the time course of gene regulation in EC340 cells, we tested a treatment duration between of a minimum of 12h and a maximum of 96h (data not shown).
Cells were either treated with 125 μM, 250 μM or 300 μM BU, the combination thereof with treprostinil (10 μM), or treprostinil (10 μM) alone, or kept in standard medium [Endothelial Cell Medium, ECM Sciencell™, USA, TSECs containing 5% fetal bovine serum, 1% endothelial cell growth supplement (ECGS) and 1% penicillin/streptomycin at 37° C. and 5% CO2]. a) Total RNA was extracted by Trizol® (lifetechnologies) according to the manufacturer's protocol. RNA concentration (ng/μl) and purity was determined with Nanodrop 2000®. If equal numbers of cells (1.6×10^5) were seeded per well, treatment with 250 and 300 μM BU induced cell death in as much rendering reproducible and valid yields of absolute RNA content impossible, already after 48h of treatment. b) The absolute yield in RNA preparations (μg/μl) was compared between cells, which had been incubated in standard medium (untreated), and cells, which had been treated with BU (125 or 250 μM BU) plus treprostinil (10 μM Trep), or treprostinil alone.

[6] = system: plasminogen-activator inhibitor-1 (PAI-1); assay: qPCR of candidate target gene mRNA in TSECs: PAI-1; type: cell-based, human
Description: (§1) After pretreatment of TESCs with 10 μM treprostinil for 1 h, cells were co-incubated with 10 μM treprostinil and 125 μM BU for 24 h. Total RNA was extracted by the use of PARIS Kit (life technologies). cDNA synthesis was performed by High-Capacity Reverse Transcription Kit (applied biosystems); the resulting cDNA (equivalent to 50 ng RNA/reaction) was analyzed via qPCR (StepOnePlus real-time PCR System®, Applied Biosystems). 18s rRNA was used as a reference gene.
(§2) Based on preliminary experiments we identified plasminogen-activator inhibitor-1 (PAI-1), tissue factor (TF), tissue factor pathway inhibitor (TFPI) and thrombomodulin (TM) as suitable genes to study the potential of treprostinil to counteract busulfan-induced effects in TSECs. We also tested if busulfan-mediated effects are counteracted by 10 μM treprostinil. A total of 1.5×10^5 TESCs were plated in 6 well plates. As soon as 90% confluence was reached, cells were pretreated with treprostinil for 1 h, then cells were incubated for 24h in standard culture medium containing both BU and treprostinil. Thereafter, cells were washed and mRNA was prepared. Treprostinil counteracted the busulfan-induced increased expression of procoagulatory factors such as PAI-1 and TF (data not shown). […]

tissue factor (TF) = assay: qPCR of candidate target gene mRNA in TSECs: TF; type: cell-based, human
Description: as §1, §2

thrombomodulin (TM) = assay: qPCR of candidate target gene mRNA in TSECs: TM; type: cell-based, human; settings: data not shown
Description: as §1, §2

[7] = system: tissue factor pathway inhibitor (TFPI); assay: qPCR of candidate target gene mRNA in TSECs: TFPI; type: cell-based, human
Description: as §1
Based on preliminary experiments we identified plasminogen-activator inhibitor-1 (PAI-1), tissue factor (TF), tissue factor pathway inhibitor (TFPI) and thrombomodulin (TM) as suitable genes to study the potential of treprostinil to counteract busulfan-induced effects in TSECs. We also tested if busulfan-mediated effects are counteracted by 10 μM treprostinil. A total of 1.5×10^5 TESCs were plated in 6 well plates. As soon as 90% confluence was reached, cells were pretreated with treprostinil for 1 h, then cells were incubated for 24h in standard culture medium containing both BU and treprostinil. Thereafter, cells were washed and mRNA was prepared. Treprostinil counteracted the busulfan-induced increased expression of procoagulatory factors such as PAI-1 and TF (data not shown). […] These observations justify the use of TSECs as an in vitro model system to study surrogate parameters, which are predictive of an increased risk of VOD in vivo.
Treatment of TESCs was performed as indicated in the legend to FIG. 6. Treprostinil-treatment was initiated 1 h prior to addition of busulfan. Cells were collected 24 h later.

EC340 cells = settings: 96h; cited from earlier work
EP3-receptors = target: T1, EP3-receptors (Homo sapiens, UniProt P43115); settings: inhibitory Gi-coupled EP3-receptors; cited from earlier work
T1 sequence (P43115 1-390): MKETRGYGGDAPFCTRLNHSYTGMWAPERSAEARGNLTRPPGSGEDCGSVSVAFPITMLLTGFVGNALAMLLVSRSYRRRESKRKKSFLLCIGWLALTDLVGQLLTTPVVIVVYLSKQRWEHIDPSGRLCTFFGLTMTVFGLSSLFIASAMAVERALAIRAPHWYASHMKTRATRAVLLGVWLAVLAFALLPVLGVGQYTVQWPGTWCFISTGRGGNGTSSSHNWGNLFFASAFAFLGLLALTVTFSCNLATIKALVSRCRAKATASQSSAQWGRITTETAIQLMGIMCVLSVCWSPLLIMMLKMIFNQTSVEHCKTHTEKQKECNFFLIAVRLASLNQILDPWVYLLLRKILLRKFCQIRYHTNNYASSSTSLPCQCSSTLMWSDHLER

TSECs [8] = assay: Attenuation by treprostinil of busulfan-induced cell death in TSECs; type: cell-based, human
Description: TSECs were pretreated with treprostinil (10 μM) for 1 h and examined, if this protected them against busulfan-induced cell death by challenging them—in the continuous presence of treprostinil—with 125 and 250 μM and 500 μM Busulfan (BU). After 24 h, cell viability was determined by counting detached cells in a haemocytometer and determining the number of trypan blue-positive (=dead) and trypan-blue excluding (=live) cells.
TSECs were plated on collagen-coated plastic dishes (5*10^3 cells/24-well plate). After 24 hours treprostinil was added at a concentration of […]. One hour later, busulfan was added at increasing concentrations. Cell viability was assessed after 48 hours.
We examined the concentration range, in which treprostinil protected TSECs against busulfan-induced cell death. TSECs were plated on collagen-coated plastic dishes and after 24 h treprostinil was added at concentrations of 5, 10 and 20 pM. One hour later, busulfan was added at concentrations of 125 and 250 μM. Cell viability was assessed after 48 h. […] The data were analyzed using a 2-way ANOVA.
TSECs were plated on collagen-coated plastic dishes (5*10^3 cells/24-well plate). After 24 hours treprostinil was added at concentrations of 5, 10 and 20 pM. One hour later, busulfan was added at concentration of 125 and 250 μM. Cell viability was assessed after 48 hours. Even low concentrations of treprostinil (5 μM) attenuated busulfan induced cell death. […] The data were analyzed by two-way ANOVA. A Bonferroni post hoc test was conducted to test for differences between individual treatment groups.

[9] = system: intracellular cAMP levels in TSECs; assay: cAMP accumulation in TSECs; type: cell-based, human; settings: 1 h
Description: It is desirable to understand the mechanisms, which allow treprostinil to modulate busulfan-induced gene expression, because this allows for searching for additional target genes. It was assumed that the action of treprostinil is mediated by an increased accumulation of cAMP. […] This was seen both, in the presence of 30 μM forskolin ([…], left hand panel) and if the concentration of forskolin was titrated between 1 and 30 μM (FIG. 6, middle and right hand panel). It was also seen regardless of whether [^3H]cAMP was low (FIG. 6, middle panel) or high (FIG. 6, right hand panel).
Control cells were incubated in standard medium. For comparison, cAMP accumulation was also assessed after incubation with dmPGE2. […] In the third experiment, the response was higher, presumably due to more extensive labelling of the adenine nucleotide pool. However, in none of the experiments tested, treprostinil alone sufficed to increase intracellular cAMP levels over that seen in untreated control cells.

EP2-receptors = EP2-receptors (Homo sapiens, UniProt P43116); settings: cited from earlier work
Sequence of EP2-receptors (P43116 whole entry): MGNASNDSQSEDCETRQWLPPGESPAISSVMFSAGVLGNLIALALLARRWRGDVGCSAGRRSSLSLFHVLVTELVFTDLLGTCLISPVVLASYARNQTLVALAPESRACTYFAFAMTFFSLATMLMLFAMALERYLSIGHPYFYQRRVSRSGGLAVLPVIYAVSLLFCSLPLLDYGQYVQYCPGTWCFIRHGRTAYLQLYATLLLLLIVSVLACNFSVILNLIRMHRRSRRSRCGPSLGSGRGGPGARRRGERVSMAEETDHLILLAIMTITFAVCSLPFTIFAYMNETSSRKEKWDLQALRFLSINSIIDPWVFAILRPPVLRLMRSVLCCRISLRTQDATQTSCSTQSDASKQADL

EP4-receptors = EP4-receptors (Homo sapiens, UniProt P35408); settings: cited from earlier work
Sequence of EP4-receptors (P35408 whole entry): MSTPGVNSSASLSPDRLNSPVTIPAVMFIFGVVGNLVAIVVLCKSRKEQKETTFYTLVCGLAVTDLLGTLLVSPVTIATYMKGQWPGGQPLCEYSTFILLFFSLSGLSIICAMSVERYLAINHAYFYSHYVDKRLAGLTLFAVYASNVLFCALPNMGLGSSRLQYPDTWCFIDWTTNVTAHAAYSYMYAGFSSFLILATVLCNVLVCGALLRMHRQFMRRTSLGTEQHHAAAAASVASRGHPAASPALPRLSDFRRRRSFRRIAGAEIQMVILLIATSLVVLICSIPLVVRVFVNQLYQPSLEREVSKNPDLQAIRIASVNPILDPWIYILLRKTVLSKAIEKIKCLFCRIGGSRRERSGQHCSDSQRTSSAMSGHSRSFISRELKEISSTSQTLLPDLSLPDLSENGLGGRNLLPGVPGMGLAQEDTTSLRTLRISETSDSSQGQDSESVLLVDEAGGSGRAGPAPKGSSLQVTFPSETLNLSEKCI

[10] = 10 μM treprostinil 1 h pretreatment, then with 125 μM BU for 24 h, data not shown

## CCCCC[C@H](O)/C=C/[C@@H]1[C@H]2C/C(=C/CCCC(=O)O)O[C@H]2C[C@H]1O [Flolan]
[1]
  serum half-life: very short
[2]
  maximum tolerable dosage: 5 to 8 ng/kg/day

## CCCCC[C@H](O)/C=C/[C@H]1[C@H](O)CC(=O)[C@@H]1CCCCCCC(=O)O [PGE1, prostaglandin E1]
[3]; PGE1 alone (Senzolo M. et al., 2007)
  advantage in VOD: failed to show any advantage

## CS(=O)(=O)OCCCCOS(C)(=O)=O [busulfan, 1,4-butanediol dimethanesulfonate]
TSECs [4]; busulfan 10 μM-1 mM, 48 hours, absence of hepatocytes (FIG. 2)
  cell death of TSECs, concentration dependence: induced cell death in a concentration dependent manner
TSECs [4]; busulfan 10 μM-1 mM, after 24 h
  cell death of TSECs: No obvious cell death
TSECs [4]; busulfan, also at lower concentrations, after 72 h
  cell death of TSECs: almost complete cell death
TSECs [5]; 48 h pretreatment of TSECs
  highest busulfan concentration allowing harvest of mRNA of adequate quality for qPCR: 125 µM
TSECs [5]; busulfan 125 μM for 48h
  yield of RNA compared to untreated cells (100%): 85%
TSECs [5]; busulfan 250 μM for 48h
  yield of RNA compared to untreated cells (100%): 74%
[6]; busulfan 125 μM, 24 h
  PAI-1 expression: induces the expression
Tissue factor (TF); busulfan 125 μM, 24 h
  TF expression: induces the expression
Thrombomodulin (TM); busulfan 125 μM, 24 h
  thrombomodulin (TM) expression: decreased the expression
[7]; busulfan
  expression of TFPI: induced
EC340 cells
  tolerated concentration: ≤ 300 µM

## CCCCC(C)(C)[C@H](O)/C=C/[C@H]1[C@H](O)CC(=O)[C@@H]1C/C=C\CCCC(=O)O [dimethyl-PGE2]
EP3-receptors
  agonism at EP3-receptors: full agonist

## CCCCC[C@H](O)/C=C/[C@H]1[C@H](O)CC(=O)[C@@H]1C/C=C\CCCC(=O)O [prostaglandin E2]
[3]; in combination with heparin (Senzolo M. et al., 2007)
  incidence of VOD: lower incidence of VOD

## CCCCC[C@H](O)CC[C@@H]1[C@H]2Cc3cccc(OCC(=O)[O-])c3C[C@H]2C[C@H]1O.[Na+] [treprostinil, (1R,2R,3aS,9aS)-[[2,3,3a,4,9,9a-hexahydro-2-hydroxy-1-[(3S)-3-hydroxyoctyl]-1H-benz[f]inden-5-yl]oxy]acetic acid monosodium salt]
TSECs [8]; busulfan 125 and 250 μM, 48 h
  concentration close to saturation of protection against busulfan-induced cell death: 10 µM
TSECs [8]; treprostinil 10 pM added 1 hour before busulfan 125 and 250 μM, 48 hours
  cell viability: increased viability
TSECs [8]; treprostinil 5 μM, busulfan 125 and 250 μM, 48 h
  effect on busulfan-induced cell death: attenuated busulfan-induced cell death
TSECs [8]; treprostinil 10 μM, 1 h pretreatment, busulfan 125, 250 and 500 μM, after 24 h, three independent experiments
  effect on BU-induced toxicity (cell viability): attenuated BU-induced toxicity
TSECs [8]; treprostinil above 5 μM (10 and 20), busulfan 125 and 250 μM, 48 hours
  beneficial effect on busulfan induced cell death at higher concentrations: did not increase at higher concentrations
TSECs [5]; busulfan plus 10 μM treprostinil, pretreated 1 hour and co-incubated 24 h
  loss in RNA yield: 11%
TSECs [5]; treprostinil alone (10 μM), 5 independent RNA preparations
  RNA content compared to control cells: 111%
[6]; [10]
  effect on busulfan-induced increased expression of PAI-1: counteracted
Tissue factor (TF); [10]
  effect on busulfan-induced increased expression of TF: counteracted
Thrombomodulin (TM); 10 μM treprostinil 1 h pretreatment, then with 125 μM BU for 24 h
  effect on busulfan-induced decrease of TM expression: mitigated the effect of busulfan
[7]; treprostinil
  expression of TFPI: induced
[7]; treprostinil in TESCs
  regulation of expression of mRNA of TFPI, concentration dependence: concentration-dependent manner
[9]; sole addition of treprostinil
  intracellular cAMP levels: did not suffice to increase intracellular cAMP levels
[9]; treprostinil 10 μM, cells sensitized with forskolin (1 to 30 μM)
  intracellular cAMP levels: further increased intracellular cAMP levels
EP3-receptors
  agonism at EP3-receptors: low affinity agonist
EP2-receptors
  stimulation of EP2-receptors: selectively stimulates
EP4-receptors
  stimulation of EP4-receptors: selectively stimulates
